# Experimental data as given in the supplement of paper PMC10307832.
# Experiments:
# Experiment in all cases: relative viability (nuclei count vs DMSO), 5 days (fraction); higher = more cells survive
# NCI-H520 = settings: first compound 500 µM
# Summary of the method: (§1)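 Relative viability is defined as nuclei in treated wells over nuclei in vehicle wells. Duplicate plates were run and medians reported. Lung cancer cell lines in 1536-well plates were dosed by pin tool one day after seeding, with one drug or with a fixed anchor-drug dose plus five library-drug doses (not always all listed) in √10 steps, and nuclei were counted after 5 days.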
# NCI-H2347 = system: NCI-H2347
# Summary of the method: as §1
# NCI-H460 = system: NCI-H460
# Summary of the method: as §1
# NCI-H2085 = system: NCI-H2085
# Summary of the method: as §1
# NCI-H1355 = system: NCI-H1355
# Summary of the method: as §1
# NCI-H441 = system: NCI-H441
# Summary of the method: as §1
# NCI-H322M = system: NCI-H322M
# Summary of the method: as §1
# EKVX = system: EKVX
# Summary of the method: as §1
# NCI-H3122 = system: NCI-H3122
# Summary of the method: as §1
# LK-2 = system: LK-2
# Summary of the method: as §1
# NCI-H650 = system: NCI-H650
# Summary of the method: as §1
# NCI-H358 = system: NCI-H358
# Summary of the method: as §1
structure (smiles),measurement,setting,value
O=C(O)CCCCC(CCSCc1ccccc1)SCc1ccccc1 (stereo not given) [CPI-613] + CC(=O)c1c(C)c2cnc(Nc3ccc(N4CCNCC4)cn3)nc2n(C2CCCC2)c1=O [Palbociclib] (partner 0.5 µM),relative viability,NCI-H520,0.117
same,relative viability,NCI-H2347; first compound 5 µM,0.434
same,relative viability,NCI-H2347; first compound 15.81 µM,0.379
same,relative viability,NCI-H2347; first compound 50 µM,0.404
same,relative viability,NCI-H2347; first compound 158.11 µM,0.392
same,relative viability,NCI-H2347; first compound 500 µM,0.22
same,relative viability,NCI-H460; first compound 5 µM,0.197
same,relative viability,NCI-H460; first compound 15.81 µM,0.0984
same,relative viability,NCI-H460; first compound 50 µM,0.0912
same,relative viability,NCI-H460; first compound 158.11 µM,0.0107
same,relative viability,NCI-H460; first compound 500 µM,0.0087
same,relative viability,NCI-H2085; first compound 5 µM,0.447
same,relative viability,NCI-H2085; first compound 15.81 µM,0.47
same,relative viability,NCI-H2085; first compound 50 µM,0.456
same,relative viability,NCI-H2085; first compound 158.11 µM,0.391
same,relative viability,NCI-H2085; first compound 500 µM,0.191
same,relative viability,NCI-H1355; first compound 5 µM,0.429
same,relative viability,NCI-H1355; first compound 15.81 µM,0.408
same,relative viability,NCI-H1355; first compound 50 µM,0.424
same,relative viability,NCI-H1355; first compound 158.11 µM,0.407
same,relative viability,NCI-H1355; first compound 500 µM,0.105
same,relative viability,NCI-H441; first compound 5 µM,0.222
same,relative viability,NCI-H441; first compound 15.81 µM,0.197
same,relative viability,NCI-H441; first compound 50 µM,0.18
same,relative viability,NCI-H441; first compound 158.11 µM,0.136
same,relative viability,NCI-H441; first compound 500 µM,0.0142
same,relative viability,NCI-H322M; first compound 5 µM,0.466
same,relative viability,NCI-H322M; first compound 15.81 µM,0.47
same,relative viability,NCI-H322M; first compound 50 µM,0.494
same,relative viability,NCI-H322M; first compound 158.11 µM,0.513
same,relative viability,NCI-H322M; first compound 500 µM,0.288
same,relative viability,EKVX; first compound 5 µM,0.372
same,relative viability,EKVX; first compound 15.81 µM,0.449
same,relative viability,EKVX; first compound 50 µM,0.404
same,relative viability,EKVX; first compound 500 µM,0.378
same,relative viability,NCI-H3122; first compound 5 µM,0.178
same,relative viability,NCI-H3122; first compound 15.81 µM,0.198
same,relative viability,NCI-H3122; first compound 50 µM,0.175
same,relative viability,NCI-H3122; first compound 158.11 µM,0.155
same,relative viability,NCI-H3122; first compound 500 µM,0.145
same,relative viability,LK-2; first compound 5 µM,0.766
same,relative viability,LK-2; first compound 15.81 µM,0.684
same,relative viability,LK-2; first compound 50 µM,0.726
same,relative viability,LK-2; first compound 158.11 µM,0.532
same,relative viability,LK-2; first compound 500 µM,0.547
same,relative viability,NCI-H650; first compound 5 µM,0.337
same,relative viability,NCI-H650; first compound 15.81 µM,0.312
same,relative viability,NCI-H650; first compound 50 µM,0.306
same,relative viability,NCI-H650; first compound 158.11 µM,0.269
same,relative viability,NCI-H650; first compound 500 µM,0.262
same,relative viability,NCI-H358; first compound 5 µM,0.114
same,relative viability,NCI-H358; first compound 15.81 µM,0.134
same,relative viability,NCI-H358; first compound 50 µM,0.154
same,relative viability,NCI-H358; first compound 158.11 µM,0.0757
same,relative viability,NCI-H358; first compound 500 µM,0.0449
